Test results taken from publication PMC12352620, “Fragment-based discovery of dual ligand pharmacophores for lipid-sensing transcription factors for designed polypharmacology” (RSC Medicinal Chemistry, 2025).

Experiments:
Type in all cases: cell-based
[1] = target: T1, THRα (Homo sapiens, UniProt P10827); experiment: Gal4-hybrid reporter gene assay THRα; details: mean ± S.E.M., n ≥ 3; for EC50 / EC50 THRα: HEK293T, Gal4-hybrid reporter, Inactive = tested 1–300 μM; for max. fold activation THRα: maximum reporter activation vs DMSO (0.1%) treated cells
T1 construct: expressed in transfected cells; host or cells: HEK293T
T1 sequence (P10827 128-410 isoform P10827-2 limits assumed): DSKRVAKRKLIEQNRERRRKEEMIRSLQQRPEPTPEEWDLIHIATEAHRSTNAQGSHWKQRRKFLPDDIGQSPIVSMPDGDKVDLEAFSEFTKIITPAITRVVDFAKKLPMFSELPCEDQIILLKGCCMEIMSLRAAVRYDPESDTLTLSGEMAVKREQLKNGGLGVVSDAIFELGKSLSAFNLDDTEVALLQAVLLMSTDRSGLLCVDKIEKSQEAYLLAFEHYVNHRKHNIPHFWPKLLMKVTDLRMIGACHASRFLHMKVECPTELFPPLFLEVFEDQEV
Method: (§1) NR modulation was determined as described previously[45] in Gal4 hybrid reporter gene assays in HEK293T cells (German Collection of Microorganisms and Cell Culture GmbH, DSMZ) using pFR-Luc (Stratagene, La Jolla, CA, USA; reporter), pRL-SV40 (Promega, Madison, WI, USA; internal control) and the hybrid receptor clones pFA-CMV-hTHRα-LBD,[46] pFA-CMV-hPPARγ-LBD,[47] pFA-CMV-hFXR-LBD,[48] and pFA-CMV-hRXRα-LBD,[49] coding for the hinge region and ligand binding domain of the canonical isoform of the respective NR. Cells were cultured in Dulbecco's modified Eagle's medium (DMEM), high glucose supplemented with 10% fetal calf serum (FCS), sodium pyruvate (1 mM), penicillin (100 U mL^−1), and streptomycin (100 μg mL^−1) at 37 °C and 5% CO2 and seeded in 96-well plates (3 × 10^4 cells per well). After 24 h, medium was changed to Opti-MEM without supplements and cells were transiently transfected using Lipofectamine LTX reagent (Invitrogen, Carlsbad, CA, USA) according to the manufacturer's protocol. Five hours after transfection, cells were incubated with the test compounds in Opti-MEM supplemented with penicillin (100 U mL^−1), streptomycin (100 μg mL^−1) and 0.1% DMSO for 16 h before luciferase activity was measured using the Dual-Glo Luciferase Assay System (Promega) according to the manufacturer's protocol on a Tecan Spark luminometer (Tecan Deutschland GmbH, Crailsheim, Germany). Firefly luminescence was divided by Renilla luminescence and multiplied by 1000 resulting in relative light units (RLU) to normalize for transfection efficiency and cell growth. Fold activation was obtained by dividing the mean RLU of test compound by the mean RLU of the untreated control. All samples were tested in at least three biologically independent experiments in duplicates. For dose–response curve fitting and calculation of EC50 values, the equation “[agonist] vs. response − variable slope (four parameters)” was used in GraphPad Prism (version 7.00, GraphPad Software, La Jolla, CA, USA). For selectivity profiling, the hybrid reporter gene assay was performed with Gal4 fusion receptor plasmids for RARα, PPARα, PPARδ, VDR, CAR and LXRα. The following reference agonists were used: triiodothyronine (1 μM, THR), all-trans retinoic acid (1 μM, RAR), GW7647 (1 μM, PPARα), pioglitazone (1 μM, PPARγ), L165041 (1 μM, PPARδ), calcitriol (1 μM, VDR), CITCO (1 μM, CAR), T0901317 (1 μM, LXR), GW4064 (1 μM, FXR), bexarotene (1 μM, RXR).

[2] = target: T2, PPARγ (Homo sapiens, UniProt P37231); experiment: Gal4-hybrid reporter gene assay PPARγ; details: mean ± S.E.M., n ≥ 3; for EC50: HEK293T, Gal4-hybrid reporter, Inactive = tested 1–300 μM; for max. fold activation PPARγ: maximum reporter activation vs DMSO (0.1%) treated cells
T2 construct: expressed in transfected cells; host or cells: HEK293T
T2 sequence (P37231 238-503 limits assumed): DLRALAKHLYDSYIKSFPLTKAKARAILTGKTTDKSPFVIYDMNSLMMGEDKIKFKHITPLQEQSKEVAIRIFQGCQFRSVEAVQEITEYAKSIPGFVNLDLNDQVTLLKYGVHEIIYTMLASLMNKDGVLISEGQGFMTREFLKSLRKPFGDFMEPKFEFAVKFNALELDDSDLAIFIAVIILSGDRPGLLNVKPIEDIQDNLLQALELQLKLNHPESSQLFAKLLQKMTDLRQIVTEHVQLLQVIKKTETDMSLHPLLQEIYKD
Method: as §1

[3] = target: T3, FXR (Homo sapiens, UniProt Q96RI1); experiment: Gal4-hybrid reporter gene assay FXR; details: mean ± S.E.M., n ≥ 3; for EC50 / EC50 FXR: HEK293T, Gal4-hybrid reporter, Inactive = tested 1–300 μM; for max. fold activation FXR: maximum reporter activation vs DMSO (0.1%) treated cells
T3 construct: expressed in transfected cells; host or cells: HEK293T
T3 sequence (Q96RI1 262-486 limits assumed): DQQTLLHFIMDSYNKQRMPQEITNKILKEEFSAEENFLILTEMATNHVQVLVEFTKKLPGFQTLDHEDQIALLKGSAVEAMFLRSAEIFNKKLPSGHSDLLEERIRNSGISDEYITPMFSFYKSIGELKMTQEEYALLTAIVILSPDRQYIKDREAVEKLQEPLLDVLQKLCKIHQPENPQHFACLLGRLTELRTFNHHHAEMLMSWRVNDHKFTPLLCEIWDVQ
Method: as §1

[4] = target: T4, RXRα (Homo sapiens, UniProt P19793); experiment: Gal4-hybrid reporter gene assay RXRα; details: mean ± S.E.M., n ≥ 3; for EC50 / EC50 RXRα: HEK293T, Gal4-hybrid reporter, Inactive = tested 1–300 μM; for max. fold activation RXRα: maximum reporter activation vs DMSO (0.1%) treated cells
T4 construct: expressed in transfected cells; host or cells: HEK293T
T4 sequence (P19793 227-458 limits assumed): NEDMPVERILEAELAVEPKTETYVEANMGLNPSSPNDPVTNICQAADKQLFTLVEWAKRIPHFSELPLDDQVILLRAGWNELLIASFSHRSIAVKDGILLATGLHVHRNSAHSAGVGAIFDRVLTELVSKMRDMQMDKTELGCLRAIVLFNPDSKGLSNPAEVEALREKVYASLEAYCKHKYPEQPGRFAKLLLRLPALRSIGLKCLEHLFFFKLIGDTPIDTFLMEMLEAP
Method: as §1

| EC50 [1] [µM] | max. fold activation THRα [1] | EC50 [2] [µM] | max. fold activation PPARγ [2] | EC50 [3] [µM] | max. fold activation FXR [3] | EC50 [4] [µM] | max. fold activation RXRα [4] | EC50 THRα [1] | EC50 FXR [3] | EC50 RXRα [4] | SMILES |
| --- | --- | --- | --- | --- | --- | --- | --- | --- | --- | --- | --- |
| 27 ± 1 | (8.9 ± 0.5-fold) | 25.9 ± 0.4 | (31.2 ± 0.6-fold) | 26 ± 1 | (9.5 ± 0.4-fold) | 33 ± 6 | (8 ± 1-fold) |  |  |  | CCOc1ccc(C(=O)/C=C/C(=O)O)cc1 [2.7] |
|  |  | 126 ± 9 | (6.7 ± 0.3-fold) |  |  |  |  | Inactive | Inactive | Inactive | COc1ccc(/C=C/C(=O)O)cc1 [2.12] |
|  |  | 34 ± 7 | (8.2 ± 0.5-fold) |  |  |  |  | Inactive | Inactive | Inactive | O=C(O)/C=C/C(=O)c1cccc(Cl)c1 [2.16] |
| 55 ± 19 | (2.6 ± 0.3-fold) | 86 ± 8 | (21 ± 1-fold) | 108 ± 22 | (3.2 ± 0.4-fold) | 55 ± 8 | (3.5 ± 0.1-fold) |  |  |  | COc1ccc(/C=C(/C(=O)O)C(F)(F)F)cc1 [2.19] |
|  |  | 106 ± 5 | (25.0 ± 0.8-fold) |  |  | 129 ± 11 | (22.5 ± 1.5-fold) | Inactive | Inactive |  | O=C(O)CCCC#Cc1ccccc1 [2.27] |
| 10 ± 3 | (1.7 ± 0.1-fold) | 51 ± 9 | (11.0 ± 0.5-fold) |  |  |  |  |  | Inactive | Inactive | O=C(O)/C=C/C(=O)c1ccc(F)cc1F [2.28] |
|  |  | 47 ± 3 | (17.4 ± 0.3-fold) |  |  |  |  | Inactive | Inactive | Inactive | O=C(O)COc1ccccc1Cc1ccccc1 [2.43] |
| 26 ± 5 | (2.1 ± 0.2-fold) | 32 ± 2 | (3.2 ± 0.2-fold) | 11 ± 2 | (1.7 ± 0.1-fold) | 14 ± 5 | (2.1 ± 0.2-fold) |  |  |  | O=C(O)c1coc(-c2cccc(Cl)c2)c1 [3.2, 5-(3-Chlorophenyl)furan-3-carboxylic acid] |
|  |  | 62 ± 2 | (26 ± 2-fold) |  |  |  |  | Inactive | Inactive | Inactive | O=C(O)/C=C/C(=O)c1ccccc1 [4.1, (E)-4-Oxo-4-phenylbut-2-enoic acid] |

| SMILES | EC50 [1] [µM] | max. fold activation THRα [1] | EC50 [2] [µM] | max. fold activation PPARγ [2] | EC50 [3] [µM] | max. fold activation FXR [3] | EC50 [4] [µM] | max. fold activation RXRα [4] | EC50 THRα [1] | EC50 FXR [3] | EC50 RXRα [4] |
| --- | --- | --- | --- | --- | --- | --- | --- | --- | --- | --- | --- |
| O=C(O)/C=C/C=C/c1ccc2c(c1)OCO2 [2.6] | 225 ± 91 | (5.0 ± 1.4-fold) | 137 ± 8 | (9.3 ± 0.5-fold) | 138 ± 44 | (5.2 ± 0.8-fold) | 112 ± 19 | (3.4 ± 0.2-fold) |  |  |  |
